According to ChEMBL document CHEMBL6182852, “Discovery of ATP competitive PDHK1/2 dual inhibitors” (Bioorg Med Chem Lett, 2025):

Experiments:
[1] = molecular target: [Pyruvate dehydrogenase (acetyl-transferring)] kinase isozyme 2, mitochondrial (Homo sapiens, UniProt Q15119); assay: Inhibition of PDHK2 (unknown origin)
[2] = Cytotoxicity against human PBMC cells
[3] = Inhibition of LPS-induced TNF release in human PBMC cells; assay type: functional, cell-based
[4] = Inhibition of E1 PDHK (unknown origin) phosphorylation at S232 residues; set-up: species or system Homo sapiens
[5] = molecular target: [Pyruvate dehydrogenase (acetyl-transferring)] kinase isozyme 1, mitochondrial (Homo sapiens, UniProt Q15118); assay: Inhibition of PDHK1 (unknown origin) in presence of 0.5 uM ATP
Sequence of [Pyruvate dehydrogenase (acetyl-transferring)] kinase isozyme 1, mitochondrial (Q15118 whole entry): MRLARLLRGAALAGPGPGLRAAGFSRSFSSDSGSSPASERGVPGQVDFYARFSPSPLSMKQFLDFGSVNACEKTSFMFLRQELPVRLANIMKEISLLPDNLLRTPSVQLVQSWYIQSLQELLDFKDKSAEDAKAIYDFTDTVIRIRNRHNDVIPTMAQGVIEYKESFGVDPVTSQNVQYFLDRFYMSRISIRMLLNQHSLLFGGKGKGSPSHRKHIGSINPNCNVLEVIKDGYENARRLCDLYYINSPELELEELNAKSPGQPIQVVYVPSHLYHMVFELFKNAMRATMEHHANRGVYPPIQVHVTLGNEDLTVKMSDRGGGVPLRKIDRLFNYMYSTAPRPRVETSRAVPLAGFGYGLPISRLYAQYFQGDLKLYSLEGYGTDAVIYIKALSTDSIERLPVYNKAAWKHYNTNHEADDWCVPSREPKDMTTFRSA

Row | Structure (SMILES) | IC50 [1] [µM] | CC50 [2] [µM] | IC50 [3] [µM] | IC50 [4] [µM] | IC50 [5] [µM]
1 | CCNc1cc(F)cc2c1[nH]c(=O)n2-c1c(C)cc(Oc2cccc(C(=O)O)c2)cc1Cl | 0.034 | > 100 | 71 | > 100 | 
2 | CSc1cc(-c2nccs2)n[nH]1 |  |  |  |  | > 100
3 | CCNc1cc(F)cc2c1[nH]c(=O)n2-c1ccc(Oc2cccc(S(=O)(=O)F)c2)cc1 | 0.12 | > 100 | 24.5 | 5.3 | 
4 | CCNc1cc(F)cc2c1NC(=O)C2(C)N1CCC[C@@H](Nc2ccc(C(=O)O)c(Cl)c2)C1 (stereo partly drawn) |  | > 100 | > 100 |  | 
5 | CCNc1cc(F)cc2c1NC(=O)C2(CC)N1CCC[C@@H](NC(=O)C2CC3(C2)CN(C#N)C3)C1 (mixture of isomers) | 0.015 | > 100 | 0.9 |  | 
6 | CCNc1cc(F)cc2c1NC(=O)C2(C)N1CCC[C@@H](Nc2ccc(C#N)nc2)C1 (mixture of isomers) |  | 56.9 | 4.5 |  | 
7 | CCNc1cc(F)cc2c1NC(=O)C2(C)N1CCCCC1 (racemic) |  | > 100 | 49 |  | 
